What was measured:
TRPC3 = molecular target: T1, TRPC3 (Homo sapiens, UniProt Q13507); experiment: OAG-induced Ca2+ entry in Fura2-loaded HEK293 cells expressing TRPC3; type: cell-based; settings: ELP-004 0 to 1 mM for 10 minutes before OAG, FIG. 1D, read-out: IC50, inhibition of OAG-induced Ca2+ entry
T1 construct: expressed in transfected cells
T1 sequence (Q13507 1-921): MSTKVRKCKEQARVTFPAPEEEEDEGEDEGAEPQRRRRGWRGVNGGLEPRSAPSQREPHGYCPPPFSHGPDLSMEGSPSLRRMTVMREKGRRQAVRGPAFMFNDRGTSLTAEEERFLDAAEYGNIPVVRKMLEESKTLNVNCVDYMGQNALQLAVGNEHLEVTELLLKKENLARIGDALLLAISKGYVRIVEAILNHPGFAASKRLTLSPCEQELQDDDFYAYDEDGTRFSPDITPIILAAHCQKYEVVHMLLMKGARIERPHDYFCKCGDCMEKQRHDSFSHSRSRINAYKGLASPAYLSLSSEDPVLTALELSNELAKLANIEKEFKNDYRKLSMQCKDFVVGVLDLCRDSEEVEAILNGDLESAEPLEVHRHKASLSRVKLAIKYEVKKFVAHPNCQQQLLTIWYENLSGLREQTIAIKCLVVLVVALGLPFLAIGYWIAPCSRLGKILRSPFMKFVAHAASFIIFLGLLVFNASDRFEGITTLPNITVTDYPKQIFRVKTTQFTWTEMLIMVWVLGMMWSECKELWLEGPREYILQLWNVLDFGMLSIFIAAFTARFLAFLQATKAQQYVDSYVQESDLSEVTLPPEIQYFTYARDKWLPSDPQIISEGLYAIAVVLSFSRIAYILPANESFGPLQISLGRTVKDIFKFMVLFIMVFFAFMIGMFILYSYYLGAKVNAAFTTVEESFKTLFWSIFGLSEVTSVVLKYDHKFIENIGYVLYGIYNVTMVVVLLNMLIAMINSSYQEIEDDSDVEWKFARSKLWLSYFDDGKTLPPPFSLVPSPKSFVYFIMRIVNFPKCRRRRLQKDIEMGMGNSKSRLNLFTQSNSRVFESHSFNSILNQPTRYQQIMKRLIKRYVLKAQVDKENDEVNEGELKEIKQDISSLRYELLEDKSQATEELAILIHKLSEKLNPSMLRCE
Experimental: Inhibition of DAG-mediated TRPC activation. To determine if ELP-004 (N-MeDCPA) inhibits DAG-induced TRPC activation, HEK293 cells expressing TRPC3, TRPC6 or TRPC7 were loaded with Fura2 and incubated with ELP-004 (0 to 1 mM) for 10 minutes prior to challenging with 1-Oleoyl-2-acetyl-sn-glycerol (OAG), a membrane permeable form of diacylglycerol.
Cell Culture—HEK293 cells were grown in DMEM with 4.5 g/L glucose supplemented with 10% FBS and 1% Gentamycin (Full DMEM media; Thermo-Fisher Scientific, Waltham, MA) at 37° C. and 5% CO2. […]
TRPC activity assay—Cells grown on glass coverslips were incubated in a cation-safe buffer (107 mM NaCl, 7.2 mM KCl, 1.2 mM MgCl2, 11.5 mM Glucose, 20 mM HEPES-NaOH, 1 mM CaCl2), pH 7.2) and loaded with Fura2-acetoxymethylester (Fura2-AM; 2 μM) for 30 min at 24° C. as previously described^10,11. […] Ca^2+/Sr^2+ measurements were taken using a Leica DMI 6000B fluorescence microscope controlled by Slidebook software (Intelligent Imaging Innovations, Denver, CO). Fluorescence emission at 505 nm was monitored in response to excitation at alternating 340 nm and 380 nm wavelengths at a frequency of 0.67 Hz; intracellular Ca^2+ measurements are shown at 340/380 nm ratios obtained from groups of 35-45 single cells.

Mouse splenic monocytes = experiment: Osteoclast resorption (pit formation) on Corning osteo-assay surface plates; type: cell-based; settings: 1 ng/ml RANKL, 2 ng/ml TNFα, 50 ng/ml m-CSF; 7, 14 or 21 days; 100 nM ELP-004
Experimental: Mouse splenic monocytes were induced to differentiate by the addition of 1 ng/ml RANKL, 2 ng/ml TNFα and 50 ng/ml m-CSF. The panels of FIG. 6 show a representative photomicrograph of cells after 7, 14, or 21 days of culture on Corning osteo-assay surface plates with RANKL+mCSF+TNFα or with the addition of 100 nM ELP-004.

dopamine transporter = dopamine transporter (Homo sapiens, UniProt Q01959); experiment: Dopamine transport
Experimental: ELP-004 was evaluated for its ability to cross the blood brain barrier. […] Other medications, such as for example but not limited to bupropion are known to cause problems due to dopamine transporter binding.

dopamine transporter, sequence (Q01959 whole entry): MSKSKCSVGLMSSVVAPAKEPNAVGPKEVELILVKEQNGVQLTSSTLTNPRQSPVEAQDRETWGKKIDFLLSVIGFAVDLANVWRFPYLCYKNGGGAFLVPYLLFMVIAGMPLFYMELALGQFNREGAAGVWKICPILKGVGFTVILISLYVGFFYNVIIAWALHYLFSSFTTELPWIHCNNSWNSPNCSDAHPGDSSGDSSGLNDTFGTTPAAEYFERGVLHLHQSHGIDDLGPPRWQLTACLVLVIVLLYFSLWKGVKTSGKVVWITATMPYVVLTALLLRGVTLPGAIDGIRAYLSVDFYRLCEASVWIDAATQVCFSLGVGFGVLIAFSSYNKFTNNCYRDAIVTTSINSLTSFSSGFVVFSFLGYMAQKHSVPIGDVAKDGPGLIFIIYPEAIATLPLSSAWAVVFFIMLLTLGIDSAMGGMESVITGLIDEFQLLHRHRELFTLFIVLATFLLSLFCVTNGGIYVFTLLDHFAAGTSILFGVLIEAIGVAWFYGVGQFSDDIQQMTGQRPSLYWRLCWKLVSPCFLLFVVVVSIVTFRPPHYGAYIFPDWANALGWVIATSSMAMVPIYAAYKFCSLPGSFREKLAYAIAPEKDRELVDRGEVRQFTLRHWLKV

## CCC(=O)N(C)c1ccc(Cl)c(Cl)c1 [ELP-004, N-(3,4-dichlorophenyl)-N-methylpropanamide]
TRPC3
  IC50: 1000 to 2000 nM
Mouse splenic monocytes
  pit formation (osteoclast resorption): inhibited pit formation
Dopamine transporter
  problems with dopamine transport: does not cause problems with dopamine transport

From US20240058283A1, “THE MODE OF ACTION OF N-MeDCPA ON TRPC CHANNELS” (West Virginia University Board of Governors on Behalf of …, priority 2022, published 2024)
